# “Also recorded” adds a separate entry of the source. Like-named read-outs stand apart in the source and are kept apart here.
# How the values were obtained:
# [1] = tested on: nitric oxide (NO) production in RAW264.7 macrophages stimulated by lipopolysaccharide; experiment: NO inhibition assay (Griess method) in LPS-stimulated RAW264.7 cells; assay type: cell-based; settings: for IC50: read-out: IC50 of inhibition of NO production; for SI (selectivity index): calculated from CC50 and IC50
# Excerpt: As a kind of pro-inflammatory mediator, NO plays a complex role and participates in many different kinds of inflammatory reactions, the level of which usually varies to different pathological degrees. The isolated novel compounds and 10 known ones in this research were chosen to evaluate the activity of inhibiting NO released by RAW264.7 cells after being stimulated by LPS.
# The Griess method is generally used for determining NO concentration in anti-inflammatory experiments. The supernatant removed from the 96-well plates mentioned in Section 3.3.1 was interacted with Griess reagent (100 μL), and the absorbance was measured at 540 nm after 15 min. Two drugs, L-NIL and IND, were used as positive controls for comparative analysis in the test.
# (§1) The IC50 values for NO inhibitory effects were calculated using SPSS v.20.0 (SPSS Inc., Chicago, IL, USA) and results were given as means ± SD. The mRNA expression levels were compared using variance analysis with GraphPad Prism 7.0 (GraphPad Software Inc., San Diego, CA, USA), and results were expressed as means ± SEM. All tests were carried out in triplicate.
# [2] = tested on: TNF-α mRNA; experiment: qPCR assay of TNF-α mRNA expression in LPS-stimulated RAW264.7 cells; assay type: cell-based; settings: 24 h
# Procedure: (§2) The RAW264.7 cells were seeded in 12-well plates at 3 × 10^4 cells/well; after being stimulated by LPS (1.0 μg/mL) and treated with two different concentrations of compounds for 24 h, the total RNA was extracted from the cells with Trizol reagent (Invitrogen, Thermo Fisher Scientific Inc., Waltham, MA, USA). After measuring the concentration, 1 μg of total RNA was used to obtain complementary DNA (cDNA) with a qRT super mix (Bimake Co., Ltd., Houston, SD, USA). The amplification of cDNA was carried out on a Quantitative RT-PCR system (Agilent Technologies, Stratagene, Inc., Santa Clara, CA, USA) using SYBR green qPCR master mix (Bimake Co., Ltd., Houston, SD, USA). The thermal cycling conditions were as follows: 95 °C for 10 min, 40 cycles of 95 °C for 30 s, 55 °C for 1 min, and 72 °C for 1 min, followed by 95 °C for 1 min, 55 °C for 30 s, and 95 °C for 30 s.
# as §1
# [3] = tested on: iNOS mRNA; experiment: qPCR assay of iNOS mRNA expression in LPS-stimulated RAW264.7 cells; assay type: cell-based; settings: 24 h
# Procedure: as §2, §1
# [4] = tested on: COX-2 mRNA; experiment: qPCR assay of COX-2 mRNA expression in LPS-stimulated RAW264.7 cells; assay type: cell-based; settings: 24 h
# Procedure: as §2, §1
# [5] = Cytotoxicity assay (MTT); settings: mouse
# Procedure: (§3) The toxicities of different concentrations of compounds to cells were evaluated using the MTT assay [32, 33]. Firstly, the RAW 264.7 cells were maintained in DMEM with 10% FBS at 37 °C in a humid atmosphere containing 5% CO2. Then, the cells were seeded in 96-well plates (3 × 10^4 cells/well) after being passaged three times at a 1:3 split ratio. […] After being cultured for 24 h, the supernatant (100 μL) was transferred out and MTT (5 mg/mL, 20 μL for each well) was added, and the mixed solvent of 0.012 M HCl, 5% i-PrOH, and 10% sodium dodecyl sulfate (100 μL) was added 4 h later. The absorbance value was measured at 492 nm by a Thermo Multiskan MK3 microplate reader (Thermo-Labsystem, Franklin, MA, USA).
# [6] = tested on: IL-1β mRNA; experiment: qPCR assay of IL-1β mRNA expression in LPS-stimulated RAW264.7 cells; assay type: cell-based; settings: 24 h
# Procedure: as §2, §1
# [7] = tested on: IL-6 mRNA; experiment: qPCR assay of IL-6 mRNA expression in LPS-stimulated RAW264.7 cells; assay type: cell-based; settings: 24 h
# Procedure: After measuring the concentration, 1 μg of total RNA was used to obtain complementary DNA (cDNA) with a qRT super mix (Bimake Co., Ltd., Houston, SD, USA). The amplification of cDNA was carried out on a Quantitative RT-PCR system (Agilent Technologies, Stratagene, Inc., Santa Clara, CA, USA) using SYBR green qPCR master mix (Bimake Co., Ltd., Houston, SD, USA). The thermal cycling conditions were as follows: 95 °C for 10 min, 40 cycles of 95 °C for 30 s, 55 °C for 1 min, and 72 °C for 1 min, followed by 95 °C for 1 min, 55 °C for 30 s, and 95 °C for 30 s. […] The mRNA expression levels were compared using variance analysis with GraphPad Prism 7.0 (GraphPad Software Inc., San Diego, CA, USA), and results were expressed as means ± SEM. All tests were carried out in triplicate.
# [8] = tested on: RAW 264.7 cells
# Procedure: as §3
# [9] = Mus musculus, RAW264.7, 24 h, RAW264.7 cells, LPS 1 μg/mL, 24 h, Griess, n = 3, mean ± SD
# [10] = LPS 1.0 μg/mL, RAW264.7 cells, concentration not given
# [11] = RAW 264.7 cells, CC50 (median cytotoxic concentration), RAW 264.7 cells, MTT, 24 h, n = 3, >200: CC50 could not be obtained, cell survival rate >98% at 200–6.25 μM
# [12] = RAW264.7 cells, LPS 1 μg/mL, 24 h, Griess, n = 3, mean ± SD
# [13] = at 20 μM and 30 μM, vs LPS group, RAW264.7 cells
# [14] = at 5 μM and 10 μM, LPS-stimulated RAW264.7 cells
# [15] = at 40 μM and 50 μM, LPS-stimulated RAW264.7 cells
"IC50 [1, 9]",Compound,SI (selectivity index) [1],"effect on mRNA expression of TNF-α [2, 10]","effect on mRNA expression of iNOS [3, 10]","effect on mRNA expression of COX-2 [4, 10]","CC50 at 24 h [5, 11]",other results
6.78 ± 0.59 µM,"O=C(/C=C/c1ccc(O)cc1)c1ccc(O)cc1O [Compound 10, isoliquiritigenin]",19.68,can reduce; also recorded: significantly downregulate,can reduce,can reduce,133 ± 2.11 µM,
123 ± 9.92 µM,"COc1ccc(C2COc3cc(OC4OC(CO)C(O)C(O)C4O)ccc3C2O)c(O)c1 [Compound 14, (3S,4R)-4,2′-dihydroxy-4′-methoxy-isoflavanol-7-glucopyranoside]",5.86,,,,> 200 µM,
28.3 µM,"COc1ccc(-c2cc3cc(O)c(O)cc3oc2=O)c(OC)c1OC [Compound 6, 3-(2′,3′,4′-trimethoxyphenyl)-6,7-dihydroxycoumarin]",24.81,can reduce,can reduce,can reduce,> 200 µM,"IC50 [1, 12]: 28.3 ± 6.44 µM; effect on mRNA expression of IL-1β [6, 13]: reduced significantly; effect on mRNA expression of TNF-α [2, 13]: reduced significantly; effect on mRNA expression of iNOS [3, 13]: reduced significantly"
,"CC(=N)NCCCC[C@H](N)C(=O)O [L-NIL, L-N^6-(1-iminoethyl)-lysine, reference compound]",>10.48,,,,> 200 µM,"IC50 ([1]; Mus musculus, RAW264.7, 24 h): 19.1 ± 1.18 µM"
,"COC1=CC(=O)C=C(OC)C1=O [Compound 1, 2,6-dimethoxy-1,4-benzoquinone]",4.61,can reduce,can reduce,can reduce,,"inhibition of NO production compared with L-NIL (in words) ([1]; LPS-stimulated RAW264.7 cells): potent inhibition; IC50 ([1]; Mus musculus, RAW264.7, 24 h): 5.69 ± 0.28 µM; effect on mRNA expression of IL-6 [7, 14]: markedly reduced; effect on mRNA expression of IL-1β [6, 14]: markedly reduced; effect on mRNA expression of TNF-α [2, 14]: markedly reduced; effect on mRNA expression of iNOS [3, 14]: markedly reduced; effect on mRNA expression of COX-2 [4, 14]: markedly reduced; CC50 at 24 h ([5]; RAW 264.7 cells): 26.2 ± 1.26 µM"
21.1 ± 4.8 µM,"COc1ccc(-c2coc3cc(O)ccc3c2=O)cc1 [Compound 11, formononetin]",4.88,,notably downregulated,notably downregulated,103 ± 9.56 µM,
55.4 ± 3.71 µM,"COc1ccc2c(c1)c(CC(=O)O)c(C)n2C(=O)c1ccc(Cl)cc1 [IND, indomethacin, reference compound]",11.43,,,,633 ± 75.1 µM,
,"COc1ccc(-c2coc3cc([O-])ccc3c2=O)cc1.[Na+] [Compound 7, formononetin sodium]",14.73,negate the effect,negate the effect,,,"IC50 [1, 12]: 22.8 ± 0.55 µM; effect on mRNA expression of IL-6 [7, 10]: negate the effect; effect on mRNA expression of IL-1β [6, 10]: negate the effect"
,"4,7,2′-trihydroxy-4′-methoxy-isoflavanol [Compound 3]",,,,,,"IC50 [1, 12]: 35.4 ± 2.92 µM; effect on mRNA expression of IL-1β [6, 15]: could inhibit; CC50 [8]: > 200 µM"
16.3 ± 4.45 µM,"O=C1C[C@@H](c2ccc(O)cc2)Oc2cc(O)ccc21 [Compound 8, liquiritigenin]",19.25,significantly downregulate,,,> 200 µM,
40.1 ± 6.94 µM,"Oc1ccc2c(c1)OC[C@H](c1cc3c(cc1O)OCO3)[C@H]2O [Compound 4, (3S,4R)-7,2′-dihydroxy-4′,5′-methylenedioxy-isoflavan-4-ol]",7.50,,,,> 200 µM,"effect on mRNA expression of IL-1β [6, 15]: could inhibit"
36.4 ± 2.47 µM,"O=c1c(-c2ccc(O)cc2)coc2cc(O[C@@H]3O[C@H](CO)[C@@H](O)[C@H](O)[C@H]3O)cc(O)c12 [Compound 13, genistin]",,could not inhibit,could not inhibit,could not inhibit,> 200 µM,"effect on mRNA expression of IL-1β [6, 10]: declined sharply"
46.3 ± 5.83 µM,"COc1c(O)ccc2c1OC[C@H](c1cc3c(cc1O)OCO3)[C@H]2O [Compound 2, (3S,4R)-7,2′-dihydroxy-8-methoxy-4′,5′-methylenedioxy-isoflavan-4-ol]",>4.32,,,,> 200 µM,
45.9 ± 4.76 µM,"CCCCCC(=O)CCC(=O)OCCc1ccc(O)c(OC)c1 [Compound 5, Homovanillyl-4-oxo-nonanoate]",>4.36,,,,> 200 µM,
35.5 ± 2.69 µM,"O=c1c(-c2ccc(O)cc2)coc2cc(O)ccc12 [Compound 12, daidzein]",11.64,,,,> 200 µM,"effect on mRNA expression of IL-6 [7, 10]: inhibition; effect on mRNA expression of IL-1β [6, 10]: inhibition"
> 200 µM,"COc1ccc([C@@H]2COc3cc(O)ccc3C2)c(O[C@@H]2O[C@H](CO)[C@@H](O)[C@H](O)[C@H]2O)c1 [Compound 15, (3R)-vestitol-2′-O-β-D-glucopyranoside]",<1.98,,,,> 200 µM,

Compound,"IC50 [1, 9]",SI (selectivity index) [1],"effect on mRNA expression of TNF-α [2, 10]","effect on mRNA expression of iNOS [3, 10]","effect on mRNA expression of COX-2 [4, 10]","CC50 at 24 h [5, 11]",other results
"O=c1c(-c2ccc(O)cc2)coc2cc(O)cc(O)c12 [Compound 9, genistein]",16.9 ± 3.39 µM,210.84,can reduce,can reduce,can reduce,,"effect on mRNA expression of TNF-α [2, 13]: strikingly downregulated; effect on mRNA expression of iNOS [3, 13]: strikingly downregulated; effect on mRNA expression of COX-2 [4, 13]: strikingly downregulated; CC50 at 24 h [5]: > 200 µM"

# From PMC6832230, “Anti-Inflammatory Activity of Some Characteristic Constituents from the Vine Stems of Spatholobus suberectus” (Molecules, 2019)
